BindingDB's records for doi:10.1016/S1074-5521(99)80072-6 (Ligand Pharmaceuticals Inc, 1999)

Columns and labels:
[1] = target: T1, Vitamin D-binding protein (Homo sapiens, UniProt V9HWI6); assay: DBP Binding Assay; settings: pH 7.4; 4 °C
T1 sequence (V9HWI6 whole entry): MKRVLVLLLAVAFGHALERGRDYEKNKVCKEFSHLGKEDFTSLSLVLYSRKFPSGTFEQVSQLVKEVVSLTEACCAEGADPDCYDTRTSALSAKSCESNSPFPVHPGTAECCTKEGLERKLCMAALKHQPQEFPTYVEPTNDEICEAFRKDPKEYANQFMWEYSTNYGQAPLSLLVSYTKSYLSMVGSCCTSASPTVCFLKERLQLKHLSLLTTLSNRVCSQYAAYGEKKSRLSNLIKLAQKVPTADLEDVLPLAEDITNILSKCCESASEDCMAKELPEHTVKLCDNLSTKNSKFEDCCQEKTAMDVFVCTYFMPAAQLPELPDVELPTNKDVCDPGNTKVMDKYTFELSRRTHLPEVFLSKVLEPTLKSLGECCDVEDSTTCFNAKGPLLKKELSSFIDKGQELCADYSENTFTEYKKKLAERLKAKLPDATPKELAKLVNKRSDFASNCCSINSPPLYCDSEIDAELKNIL
Source text: (§1) DBP competition binding assay were done using human serum (Scantibodies) or rat serum (Gibco-BRL).

Vitamin D3 receptor = target: T2, Vitamin D3 receptor (Homo sapiens, UniProt P11473); assay: VDR Ligand-Binding Assay; settings: pH 7.5; 4 °C
T2 sequence (P11473 whole entry): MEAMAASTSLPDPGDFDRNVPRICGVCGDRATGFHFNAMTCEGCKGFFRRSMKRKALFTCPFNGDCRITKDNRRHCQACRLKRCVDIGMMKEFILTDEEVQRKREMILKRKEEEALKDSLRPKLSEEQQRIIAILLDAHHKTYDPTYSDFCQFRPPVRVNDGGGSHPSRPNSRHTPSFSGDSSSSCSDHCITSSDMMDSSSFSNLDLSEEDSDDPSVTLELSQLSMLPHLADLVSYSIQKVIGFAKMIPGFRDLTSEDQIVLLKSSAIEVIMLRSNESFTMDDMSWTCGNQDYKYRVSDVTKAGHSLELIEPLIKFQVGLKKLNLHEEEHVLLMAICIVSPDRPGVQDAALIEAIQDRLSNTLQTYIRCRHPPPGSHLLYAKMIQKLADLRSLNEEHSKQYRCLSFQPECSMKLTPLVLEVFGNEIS
Source text: VDR in vitro ligand-binding assay using human VDR constructed into a yeast expression plasmid.

[2] = target: T3, Vitamin D-binding protein (Rattus norvegicus, UniProt P04276); assay: DBP Binding Assay; settings: pH 7.4; 4 °C
T3 sequence (P04276 whole entry): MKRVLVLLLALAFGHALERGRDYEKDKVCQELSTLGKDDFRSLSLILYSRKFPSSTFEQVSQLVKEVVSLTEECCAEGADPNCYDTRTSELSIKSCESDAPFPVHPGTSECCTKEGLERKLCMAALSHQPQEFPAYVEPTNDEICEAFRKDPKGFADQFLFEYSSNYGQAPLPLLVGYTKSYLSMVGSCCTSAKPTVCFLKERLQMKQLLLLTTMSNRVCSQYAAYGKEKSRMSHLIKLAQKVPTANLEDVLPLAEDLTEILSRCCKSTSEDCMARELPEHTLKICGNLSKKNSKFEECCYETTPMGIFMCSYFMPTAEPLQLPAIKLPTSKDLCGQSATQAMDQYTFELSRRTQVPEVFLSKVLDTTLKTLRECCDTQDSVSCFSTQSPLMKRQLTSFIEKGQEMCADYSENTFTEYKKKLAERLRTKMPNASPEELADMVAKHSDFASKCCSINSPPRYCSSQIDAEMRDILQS
Source text: as §1

Row | IC50 [1] | Ki (Vitamin D3 receptor) | IC50 [2] | Compound
1 | > 1000 nM |  |  | CCC(CC)(c1ccc(OCC(=O)C(C)(C)C)c(C)c1)c1ccc(OCC(O)CO)c(C)c1 (configuration not stated) [LG190178]
2 | > 1000 nM | > 1000 nM |  | CCC(CC)(c1ccc(OCC(=O)C(C)(C)C)c(C)c1)c1ccc(OCC2CO2)c(C)c1 (configuration not stated) [LG190176]
3 | > 1000 nM | > 1000 nM |  | CCC(CC)(c1ccc(OCC(=O)C(C)(C)C)c(C)c1)c1ccc(OCC(=O)C(C)(C)C)c(C)c1 [LG190155]

More lines, now with the values behind:

Row | Compound | IC50 [1] | Ki (Vitamin D3 receptor) | IC50 [2]
4 | CC(C)(C)C(=O)COc1ccc(C(C)(C)c2ccc(OCC(=O)C(C)(C)C)c(Cl)c2)cc1Cl [LG190090] | > 1000 nM | > 1000 nM | 
5 | C=C1/C(=C\C=C\C2CCC3(C)C(CCC3C(C)CCCC(C)(C)O)C2)C[C@@H](C)C[C@@H]1C (some centres not stated) [1,25(OH)2D3] | 200 nM | 0.5 nM | 40 nM
6 | Cc1cc(C2(c3ccc(OCC(=O)C(C)(C)C)c(C)c3)CCCCC2)ccc1OCC(=O)C(C)(C)C [LG190119] | > 1000 nM | > 1000 nM | 
